Test results reported in US20260176636A1, “APTAMER-DIRECT INHIBITOR CONJUGATES AND METHODS OF USING THE SAME” (Duke University, priority 2022, published 2026).
“Also recorded” adds a separate entry of the source.

Legend:
[1] = biological target: T1, human factor Xa (Homo sapiens, UniProt P00742); assay: Fluorogenic activity assay (fluorescent peptidyl substrate cleavage), factor Xa; format: biochemical; conditions: for IC50: factor Xa 0.5 nM, fluorogenic substrate 50 μM; for factor Xa inhibition, result in words: fluorogenic substrate assay; for antidote reversal of factor Xa inhibition by 11F7t-20A-DAB, result in words: antidote oligonucleotide
T1 construct: Human alpha thrombin, human factor Xa, and human fibrinogen were purchased from Haematologic Technologies Inc; purchased Haematologic Technologies Inc
T1 sequence (P00742 235-488 limits assumed): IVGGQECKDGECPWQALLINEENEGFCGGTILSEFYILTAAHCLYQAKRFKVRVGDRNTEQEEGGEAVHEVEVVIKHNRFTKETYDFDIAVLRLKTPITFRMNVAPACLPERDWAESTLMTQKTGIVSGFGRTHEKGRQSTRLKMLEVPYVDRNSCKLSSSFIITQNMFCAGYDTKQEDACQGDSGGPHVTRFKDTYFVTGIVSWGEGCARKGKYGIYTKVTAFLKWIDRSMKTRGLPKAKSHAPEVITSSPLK
T1 sequence (P00742 41-179 limits assumed): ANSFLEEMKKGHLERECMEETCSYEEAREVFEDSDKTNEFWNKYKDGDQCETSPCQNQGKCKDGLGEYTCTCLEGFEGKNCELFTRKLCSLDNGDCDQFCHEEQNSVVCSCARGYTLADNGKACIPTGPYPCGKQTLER
Method: (§2) Fluorogenic activity assay: All reagents were freshly reconstituted in the reaction buffer (20 mM HEPES, 150 mM NaCl, and 2 mM CaCl2), 0.02%, Tween 20, pH 7.5) before the assay. 10 μL of thrombin or factor Xa (final concentration 0.5 nM) were first incubated with 5 μL of inhibitor, inhibitor/antidote mixture, or buffer control on a 384-well opaque plate for 5 min at 28° C. 10 μL of fluorogenic substrate (final concentration 50 μM) was then added to the mixture and the time-course fluorescence (λex=352 nm, λem=470 nm) of the sample were recorded every minute for 15 min at 28° C. using a SpectraMax i3 microplate reader (Molecular Devices). The catalytic rate of the protease was quantified by the slope from linear regression of the time-dependent fluorescence intensity and normalized with the sample containing no inhibitor as 100%. Each experiment was performed in triplicates.

[2] = test system: normal human plasma; assay: Activated partial thromboplastin time (aPTT) plasma coagulation assay; conditions: for effect on aPTT, result in words: normal human plasma, comparison with DAB at 500 nM
Method: (§1) Plasma coagulation assays: Thrombin time (TT), prothrombin time (PT), and activated partial thromboplastin time (aPTT) assays were performed in citrated normal human plasma on a hemostasis coagulation analyzer (Diagnostica Stago). For TT, 5 μL of inhibitors in the reaction buffer were mixed with 100 μL of plasma and incubated at 37° C. for 5 min. 50 μL of thrombin (6 NIH units/ml) in the reaction buffer was then added to initiate clotting. For PT, 5 μl of inhibitors in the reaction buffer were mixed with 50 μL of plasma and incubated at 37° C. for 5 min. 100 μL of TriniCLOT PT Excel S reagent was then added to initiate clotting. For aPTT, 5 μL of inhibitors in the reaction buffer were mixed with 50 μL of plasma and incubated at 37° C. for 5 min, 50 μL of TriniCLOT aPTT S reagents was then added followed by another 5 min incubation at 37° C. Finally, 50 μL of 20 mM CaCl2) was added to initiate clotting. To characterize antidote reversal of HD22-7A-DAB in the above assays, 5 μL AO2 (finial concentration 2 μM) in the reaction buffer was added after 5-min incubation between plasma and HD22-7A-DAB, followed by another 5 min of incubation before the next step. All assays are performed induplicates.

[3] = biological target: Human alpha thrombin (Homo sapiens, UniProt P00734); assay: Fluorogenic activity assay (fluorescent peptidyl substrate cleavage), thrombin; conditions: for thrombin inhibition, result in words / antidote reversal of thrombin inhibition, result in words: fluorogenic substrate assay; for antidote reversal of thrombin inhibition, result in words: antidote oligonucleotide; for maximum inhibition of thrombin activity: thrombin 0.5 nM, fluorogenic substrate
Method: Initial velocity studies of fluorescent peptidyl substrate cleavage by thrombin were used to assess protease inhibition by the EXACT inhibitor (FIG. 1c).
as §2

[4] = test system: factor Xa; conditions: cited from earlier work
[5] = biological target: T2, thrombin (cleavage of fibrinogen) (Homo sapiens, UniProt P00734); assay: Fibrinogen turbidity assay; format: biochemical; conditions: for inhibition of thrombin-mediated fibrin clot formation, result in words: 50 nM inhibitor, 2.5 nM thrombin, 0.8 mg/mL fibrinogen, absorbance 550 nm
T2 construct: Human alpha thrombin, human factor Xa, and human fibrinogen were purchased from Haematologic Technologies Inc; purchased Haematologic Technologies Inc
Method: To test the kinetics of antidote reversal, 1 μL AO2 (final concentration 2 μM) was added to the reaction 10 min after fibrinogen addition. The maximum absorption over the period of assay in the absence and presence of different inhibitors were determined. The time to reach 10%, 50%, and 90% maximum absorption increase from the start point were calculated and recorded as lag time, t50, and t90, respectively, for each inhibitor to evaluate the kinetic of fibrinogen activation. Each experiment was performed in triplicates to determine the mean and standard deviation of each parameter.

[6] = test system: normal human plasma; assay: Thrombin time (TT) plasma coagulation assay; conditions: for effect on TT, result in words: normal human plasma
Method: as §1

[7] = test system: normal human plasma; assay: Prothrombin time (PT) plasma coagulation assay; conditions: for effect on PT, result in words: normal human plasma, comparison with DAB at 500 nM
Method: as §1

[8] = Plasma stability (nuclease degradation, denaturing PAGE); format: in vitro ADME; conditions: 500 nM conjugate in human plasma (10 U/mL heparin), 37° C.
Method: FIG. 16. End modification of aptamer for higher plasma stability. (a) 3′ modification of HD22-DAB conjugate with invdT or cholesterol modification retain high inhibition potency to thrombin in fluorogenic substrate assay. (b) End modification of HD22-7A-DAB with 3′ invdT or cholesterol prolong […] in plasma. Plasma was prepared from whole blood collected from healthy volunteers that was supplemented with 10 U/mL of heparin to prevent coagulation. 500 nM of aptamer-drug conjugate were incubated with 200 μL of the plasma at 37° C. 20 μL of plasma reaction was collected at different time point (0, 10, 30, 60, 120, 360 min) and immediately vortexed with 100 μL phosphate buffer saline, 100 μL chloroform, and 200 μL methanol to quench nucleases. A mixture of 100 μL water and 100 μL chloroform was further added to extract the nucleic acids. The mixture was vortexed and centrifuged 500 rcf×20 min, and the aqueous phase containing nucleic acids was collected, lyophilized, reconstituted in water, and analyzed on a 15% polyacrylamide gel containing 7M urea.

[9] = biological target: T3, thrombin (FVIII activation) (Homo sapiens, UniProt P00734); assay: Thrombin cleavage of FVIII (SDS-PAGE); format: biochemical; conditions: 100 nM inhibitor, 1 nM thrombin, 100 nM FVIII
T3 construct: Human alpha thrombin, human factor Xa, and human fibrinogen were purchased from Haematologic Technologies Inc; purchased Haematologic Technologies Inc
Method: Thrombin (final concentration 1 nM) was incubated in the absence or presence of thrombin inhibitors (final concentration 100 nM) at 37° C. for 5 min following by addition of recombinant human FVIII (final concentration 100 nM). Sample were collected at 1, 2, 5, 10, 20, 30, 40, and 60 min of reaction and quenched in SDS loading buffer and heating at 95° C. for 5 min. The digestion products at different time points are then characterized on a 4-20% PAGE gel. Thrombin's activity on activating FVIII in the absence and presence of thrombin inhibitors were quantified using the time-course concentration of intact light chain under thrombin digestion determined by band intensity. The assay was performed in duplicates.

[10] = biological target: T4, thrombin (Homo sapiens, UniProt P00734); assay: Bio-layer interferometry; format: binding; parameters: Human alpha thrombin, human factor Xa, and human fibrinogen were purchased from Haematologic Technologies Inc; purchased Haematologic Technologies Inc
Method: Bio-layer interferometry: Bio-layer inferometry was performed using Octet R8 BLI System (Sartorius). Briefly, 3.3 nM of biotinylated HD22-7A-DAB, HD22-7A-NH2, HD23-7A-DAB, and HD23-7A-NH2 were immobilized to Octet streptavidin biosensors (Sartorius). […] A 30-min dissociation was performed in buffer containing 200 nM HD22-7A-DAB. The existence of free HD22-7A-DAB in dissociation buffer prevents re-binding of thrombin and provides more accurate koff measurements.

[11] = test system: whole human blood; assay: Active clotting time (ACT)
Method: Active clotting time (ACT): Citrated blood (72 μL) freshly collected from heathy donors were incubated with 6 μL inhibitors reconstituted in the reaction buffer at room temperature for 3 min following addition of 2.1 μL CaCl2) (245 mM). The blood mixture was then immediately analyzed on an ACT+ cuvette (Accriva Diagnostics) using a Hemochron Jr Signature (Instrumentation Laboratory). The assay was performed with a N value of five. One-way ANOVA test was used to compare between two sets of data.

[12] = biological target: T4, thrombin; conditions: cited from earlier work
[13] = 2 μM AO2 added at 10 min to thrombin-fibrinogen-HD22-7A-DAB (50 nM)

11F7t-20A-APX (GAGAGCCCCAGCGAGAUAAUACUUGGCCCCGCUCUUU; 5' APX-C6H12-2'OMeA linker conjugate; modified_base 37 OTHER; Inverted dT)
IC50 [1]: 170 pM | effect on aPTT, result in words [2]: significantly higher anticoagulant activity than free aptamer, small molecule inhibitor, and their equimolar mixture

11F7t-20A-DAB (GAGAGCCCCAGCGAGAUAAUACUUGGCCCCGCUCUUU; 5' DAB-C6H12-2'OMeA linker conjugate; modified_base 37 OTHER; Inverted dT)
IC50 [1]: 180 pM | factor Xa inhibition, result in words [1]: significantly higher inhibitory effect of thrombin than DAB, 11F7t, or their equimolar mixture | enhancement in the IC50 for factor Xa when DAB is conjugated to 11F7t ([1]; versus free DAB): > 2500 fold | thrombin inhibition, result in words [3]: no different from DAB alone

11F7t: factor Xa RNA aptamer, SEQ ID NO: 9 (GAGAGCCCCAGCGAGAUAAUACUUGGCCCCGCUCUUU; modified_base 37 OTHER; Inverted dT) [reference compound]
factor Xa inhibition, result in words [1]: showed no inhibition | Kd ([4]; free aptamer): 1260 pM

COc1ccc(-n2nc(C(=O)O)c3c2C(=O)N(c2ccc(N4CCCCC4=O)cc2)CC3)cc1 [APX, apixaban-COOH, reference compound]
IC50 [1]: 5500 pM

AO2: antidote oligonucleotide complementary to entire HD22 aptamer and linker, SEQ ID NO: 4 (AGTCACCCCAACCTGCCCTACCACGGACTTTTTTTT; antidote oligonucleotide complementary to aptamer and linker, chemistry not given here, further chemistry not given here)
antidote reversal of HD22-7A-DAB in aPTT ([2]; 2 μM AO2): efficiently reversed | reduction of the potency of HD22-7A-DAB by antidote ([3]; antidote oligonucleotide added to HD22-7A-DAB, FIG. 1c): more than 10,000 fold | antidote reversal of thrombin inhibition, result in words [3]: efficiently reversed; also recorded: reduces the potency of the EXACT conjugate to an extent that is significantly lower than free DAB | lag time after antidote addition [5, 13]: 9.8 min | time over which absorbance increased and saturated after antidote [5, 13]: 20.7 min | antidote reversal of HD22-7A-DAB in TT ([6]; 2 μM AO2): largely reversed within 5 minutes | antidote reversal of HD22-7A-DAB in PT ([7]; 2 μM AO2): efficiently reversed

AO5.4: antidote for 11F7t-20A-DAB pairing with entire linker and part of aptamer, SEQ ID NO: 11 (TATTATCTCGCTGGGGCTCTCTTTTTTTTTTTTTTTTTTTT; antidote oligonucleotide, chemistry not given here, further chemistry not given here)
antidote reversal of factor Xa inhibition by 11F7t-20A-DAB, result in words ([1]; listed as A05.4): efficiently reversed | antidote reversal of factor Xa inhibition by 11F7t-20A-DAB, result in words ([1]; listed as AG5.4): effectively reverses the inhibition

HD1-12A-DAB (GGTTGGTGTGGTTGG; 3' DAB conjugate via C6H12O2 linker, further chemistry not given here)
thrombin inhibition, result in words [3]: significantly higher inhibitory effect to thrombin compared with DAB, HD1, or their equimolar mixture | antidote reversal of thrombin inhibition, result in words [3]: efficiently reversed by specific antidotes; also recorded: efficiently reversed by an antisense oligo

HD22-7A-DAB
half-life in plasma [8]: around 1 hour | inhibition of thrombin-mediated FVIII cleavage, result in words [9]: no proteolysis was observed for over one hour | koff for thrombin binding ([10]; dissociation in buffer with 200 nM HD22-7A-DAB): 0.0021 s⁻¹ | kon for thrombin binding ([10]; immobilized biotinylated inhibitor): 3.9e+07 M⁻¹ s⁻¹ | effect on aPTT, result in words [2]: significantly longer than the same concentration of DAB; also recorded: weaker anticoagulant than UFH | thrombin inhibition at a concentration of 1 nM ([3]; 1 nM inhibitor): completely inhibits thrombin activity | thrombin inhibition, result in words [3]: significantly higher inhibitory effect of thrombin than DAB, HD22, or their equimolar mixture | potency higher than DAB ([3]; ratio of IC50 against thrombin): 500 fold | maximum inhibition of thrombin activity [3]: > 99% | inhibition of thrombin-mediated fibrin clot formation, result in words [5]: completely inhibited | ACT compared with 5 U/mL UFH ([11]; 1 μM): comparable to | ACT compared with 5 U/mL UFH ([11]; 2 μM): significantly higher than | ACT (measurable range of analyzer) ([11]; 2 μM, whole blood): > 999 s | ACT ([11]; 1-μM concentration, whole human blood): 624 s | effect on ACT, result in words ([11]; whole human blood): dose dependently prolonged ACT; also recorded: significantly higher than the ACTs that followed the addition of DAB, HD22, or their equimolar mixture | TT clotting time ([6]; 31 nM): > 999 s | effect on TT at inhibitor concentration lower than the added thrombin ([6]; below 13.4 nM): limited effect on TT | TT clotting time (measurable range of analyzer) ([6]; concentration exceeds 16 nM): > 999 s | effect on TT, result in words [6]: rivals UFH | effect on PT, result in words [7]: significantly longer than the same concentration of DAB; also recorded: rivals UFH

HD22: thrombin exosite II-binding DNA aptamer, SEQ ID NO: 1 [reference compound]
Kd ([12]; read-out: KD, thrombin anion binding exosite 2): 500 pM | inhibition of thrombin-mediated FVIII cleavage, result in words [9]: showed an inhibitory effect | effect on aPTT, result in words [2]: no anticoagulant effect | maximum inhibition of thrombin activity [3]: 30% | inhibition of thrombin-mediated fibrin clot formation, result in words [5]: did not inhibit this thrombin activity | effect on TT, result in words [6]: minimally affected TT | effect on PT, result in words [7]: no anticoagulant effect

TAP: Tick anticoagulant peptide secreted by Ornithodoros moubata, factor Xa inhibitor (YNRLCIKPRDWIDECDSNEGGERAYFRNGKGGCDSFWICPEDHTGADYYSSYRDCFNACI; UniProt P17726 1-60, looked up)
Ki ([4]; read-out: Ki, free FXa): 180 pM

hirudin
Ki ([12]; read-out: inhibition constant (Ki), thrombin): 10 pM
